# Results as given in patent US11672814B2, “NGNA compositions and methods of use” (priority 2008, dated 2023).
# System: influenza A (H1N1)
# Test: Influenza virus mouse model, feed supplemented with N5G
# Format: in vivo
# Source text: The overall purpose of the study was to determine whether the N5G nutritional supplement has the ability to have significant impact on clinical disease outcomes caused by influenza virus in a mouse animal model.
# The experimental design included adherence to a strict feeding schedule, which included 30 days of acclimation of mice to a defined base feed (AIN-93M) provided by Purina TestDiet, Inc. Control animals remained continuously fed with the defined base feed, while the experimental mouse group was fed with the base feed supplemented with 0.35% of N5G.
# Experimental and control mouse groups were infected intranasally with 107.5 TCID50 influenza A (H1N1) with each mouse receiving 5iL of viral inoculum per nostril. The experimental parameters followed during the study were: 1) mouse weight changes; 2) food intake changes; 3) clinical signs of disease; 4) lung tissue pathology; 5) lung consolidation scores; 6) changes in viral loads.
# Overall, the experimental design was executed without any major obstacles. As expected, there was minor occasional wasting of feed in some cages (mice chewed on feed which was dropped on the bottom of the cage). In every instance noted on daily observations, the residual feed was weighed, but it was excluded in any statistical calculations as well as in the calculation of baseline feed intake.
# As expected, all influenza infected mice developed clinical signs of disease starting 2 days post infection. Clinical signs included: 1) ruffled fur, 2) inactivity, 3) hunching, 4) death, 5) weight loss, and 6) loss of appetite.
# Clinical signs 1-4 were scored by two independent observers using a scale of 0-5. The cumulative scores were plotted and statistically analyzed. Statistical analyses were performed using SAS v.9.1.3. An analysis of variance (ANOVA) of a repeated measures design was calculated in a split-plot arrangement of treatments, with the treatment group on the main plot, and the subplot including day and treatment by day interactions. Interaction of pairwise comparisons of least square means was performed with a pairwise t-test with pre-planned comparisons. This statistical methodology was used for all comparisons in the study.
# D. The most important aspect of influenza infections is the resultant lung immunopathology. Typically, viral replication as well as infiltration of lymphocytes causes substantial damage to lung tissues. In fact, it is believed that infiltration of lymphocytes and their negative effects on lungs tissues is the most important parameter of influenza-related morbidity and mortality in humans. Consequently, particular care was taken to examine the tissues of mice for signs of histopathological changes. The following evaluation criteria were utilized to score these changes: 1) Lung consolidation scores (LCS); 2) Histopathological scores (HS). LCS were rated as follows: grade 1: no plum coloration; grade 2: minimum plum coloration; grade 3: medium plum coloration; grade 4: maximum plum coloration. HS were rated as follows: Grade 0: no overt histological change; grade 1+: only bronchial/bronchiolar and/or peri-bronchial/bronchiolar/vascular changes; grade 2+: 1-10% pulmonary parenchyma affected; grade 3+: 11-30% pulmonary parenchyma affected; grade 4:+: 31-50% pulmonary parenchyma affected; grade 5+: greater than 50% pulmonary parenchyma affected.
structure (smiles),measurement,setting,value
"O=C(CO)N[C@H]1[C@H]([C@H](O)[C@H](O)CO)O[C@](O)(C(=O)O)C[C@@H]1O [NGNA, n-glycolylneuraminic acid]",Viral titers from lung homogenates,"mice, 2 days post infection, treated and untreated",less than 100 plaque forming units (PFU) per 250iL of homogenate
same,"Clinical signs 1-4 scores (ruffled fur, inactivity, hunching, death), treated versus untreated","mice, base feed with 0.35% N5G, days 6-8 post infection, FIG. 3",Statistically significant differences
same,"Histopathological scores, treated versus untreated","mice, day 6 post infection, grades 0 to 5+, FIG. 7",statistically significant difference
same,"Viral titers from lung homogenates, treated versus untreated","mice, days 2, 4, 6, 8 and 21 post infection, one mouse per group per time point",No significant differences
same,"% change in mouse weights, untreated versus treated","mice, days 3-9 post infection, FIG. 5",highly significant reduction in body weights was observed in the control mouse group
same,% daily feed intake,"mice, days 5-6 post infection, FIG. 4, group with the loss not stated",statistically significant loss of appetite
same,"Lung consolidation scores, treated versus untreated","mice, grades 1-4, FIG. 6","“trend” toward a healthier status of treated versus untreated mice. However, there results were not statistically significant"
same,Effect on ameliorating clinical symptoms and adverse pathological implication of influenza infection,"mouse experimental model, overall conclusion",significant effect
